The Kd is the free concentration of one partner at which half of the binding sites on the other are occupied at equilibrium, for simple one-to-one binding.

Read-outs that look alike come from different tables or passages of the source.

The text below walks through data of publication PMC9676231, “Screening and characterization estrogen receptor ligands from Arnebia euchroma (Royle) Johnst. via affinity ultrafiltration LC-MS and molecular docking” (Frontiers in Plant Science, 2022).

Assay [1] has as its target T1, ER β (Homo sapiens, UniProt Q92731).
T1 construct: purchased Shanghai Tongwei Biotechnology Co., Ltd. (China)
The assay can be described thus: Affinity ultrafiltration LC-MS screening (AUF-LC-MS) of Arnebiae Radix extract against ER β. The settings on record: specific binding = Aa/Ab (relative peak area active group / denatured group), extract 5.0 mg/ml, ER β 200 µg/ml, 37°C 60 min, <1.5 = non-ligand. As for the experimental part: (§1) The above extract was dissolved in DMSO, and the solution was diluted with buffer (pH = 8.0) to a final concentration of 5.0 mg/ml. The sample solution and buffer were successively added to EP tubes. Then buffer, inactivated ER α solution (200 µg/ml, boiled in the water bath for 20 min), and ER α solution (200 µg/ml) were separately added as the blank control group, the denatured control group, and the sample group, respectively. The blank control group and denatured control group were set to exclude some interference factors about background, false positives, and non-specific binding. The group of mixtures was subsequently incubated in the dark at 37°C for 60 min to make a combination balance. Next, each mixture (200 μl) was transferred into an ultrafiltration tube and ultrafiltered at 12,000 rpm for 15 min at 4°C. Then, each group was washed three times with 300 μl of buffer to remove unbound small molecules. Finally, the ligands bound to ER α were dissociated from the complexes by incubating with 300 μl of methanol/water (90/10) for 10 min and then centrifuging at 12,000 rpm for 15 min at room temperature, three times. These ultrafiltrates for each group were dried under nitrogen gas at room temperature and reconstituted in 80 μl of methanol/water (50/50) prior to UHPLC-Q-Exactive Orbitrap MS analysis. All the screening assays were carried out in triplicate. Except for the replacement of the ER, the affinity ultrafiltration screening method of ER β is similar to that of ER α in the other steps.
(§2) The analyses are exercised on Q-Exactive Focus Orbitrap MS connected to Thermo Scientific Dionex Ultimate 3000 RS through an ESI source. For the chromatographic separation, a Thermo Scientific Hypersil GOLD™ aQ (100 mm × 2.1 mm, 1.9 μm) was applied at the flow rate of 0.3 ml/min. The 0.1% formic acid and acetonitrile were used as the mobile phases A and B, respectively. The optimized UHPLC elution procedures were conducted as follows: 0–2 min, 95%–90% A; 2–5 min, 90%–80% A; 5–10 min, 80%–75% A; 10–15 min, 75%–50% A; 15–25 min, 50%–45% A; 25–40 min, 45%–20% A; 40–45 min, 20%–5% A; 45–45.1 min, 5%–95% A; 45–50 min, 95% A. The column temperature was maintained at 35°C. For the MS/MS analysis, the mass spectrometer equipped with an electrospray ionization source was obtained with a resolution of 70,000 detected by the Orbitrap analyzer. In order to comprehensively explore compounds, the positive and negative ion modes were both selected. The mass spectrometry conditions are as follows: electrospray ion source, the spray voltage was 3.5 kV for positive ion mode and 3.2 kV for negative ion mode, sheath gas pressure was 35 arb, auxiliary gas pressure was 10 arb, and the temperature of capillary and auxiliary gas heater was 320°C and 350°C, respectively; and the S-lens RF level was 60. Full-scan data were acquired from m/z 100–1,200 by data-dependent MS^2 scanning or parallel reaction monitoring (PRM) mode. The nitrogen gas served as collision gas, and the energy was set as normalized collision energy 30%. Instrument and data were controlled by the Xcalibur software version 4.2.
Therefore, affinity ultrafiltration can rapidly screen and identify bioactive compounds in complex plant extracts by comparing the changes in peak areas before and after ultrafiltration. […] According to literature reports ([Munigunti et al., 2011]), compounds whose specific binding values were less than 1.5 were considered as non-ligands.

The target of assay [2] is T1, ER β. The experiment in a line: SPR binding measurements (Biacore T200) on immobilized ER β. The settings on record: for kon: read-out: Ka (association rate constant); for koff: read-out: Kd (dissociation rate constant). As to the method:
SPR binding measurements were performed using a Biacore T200 biosensor system (Cytiva, USA). All the SPR-based materials were acquired from Cytiva.
ER β was dissolved in PBS at 1.0 mg/ml and was then diluted in 20 μg/ml sodium acetate buffer at pH 5.0 and immobilized on a CM5 chip using an amine coupling kit. Sulfo-NHS (0.1 mol/l) and EDC (0.4 mol/l) with a 1:1 volume ratio were mixed at 25°C and flowed through a chip channel at 10 μl/min. ERβ was flowed through the chip channel at the same flow rate and reacted with the activated carboxyl groups on the chip for 600 s. Ethanolamine hydrochloride flowed through the chip channel at the same flow rate for 360 s.
Sensor preparation and interaction analyses were performed at 25°C in the PBS running buffer. Each analyte was dissolved in DMSO at 1 mg/ml and then dissolved in the running buffer at 0.20, 0.39, 0.78, 1.56, 3.13, 6.25, 12.5, and 25 μg/ml for SPR measurements.
The running buffer was used as the blank control. Eight groups of gradient concentrations of the same analyte (and the blank control) were flowed through the immobilized channel at a flow rate of 30 μl/min, with an association time of 180s and a dissociation time of 300 s. The collected signals were monitored in real time, and a reference flow cell without immobilized ER β served as a non-specific binding control. The rate constants of association and dissociation were calculated by the non-linear fitting method including the simultaneous fitting for the association and dissociation phases in each sensorgram in Biacore Evaluation Software version 3.2.1 (Cytiva, USA).
On the technique in general: SPR reads the build-up and loss of mass on a sensor chip optically.

In assay [3] the target is thrombin. More on the design: method as in Wang et al., 2017. To be noted: SPR, direct interaction with thrombin; ref Wang et al., 2017; cited from earlier work.
The target in assay [4] is T2, ER α (Homo sapiens, UniProt P03372).
T2 construct: purchased Shanghai Tongwei Biotechnology Co., Ltd. (China)
T2 sequence (P03372 1-595): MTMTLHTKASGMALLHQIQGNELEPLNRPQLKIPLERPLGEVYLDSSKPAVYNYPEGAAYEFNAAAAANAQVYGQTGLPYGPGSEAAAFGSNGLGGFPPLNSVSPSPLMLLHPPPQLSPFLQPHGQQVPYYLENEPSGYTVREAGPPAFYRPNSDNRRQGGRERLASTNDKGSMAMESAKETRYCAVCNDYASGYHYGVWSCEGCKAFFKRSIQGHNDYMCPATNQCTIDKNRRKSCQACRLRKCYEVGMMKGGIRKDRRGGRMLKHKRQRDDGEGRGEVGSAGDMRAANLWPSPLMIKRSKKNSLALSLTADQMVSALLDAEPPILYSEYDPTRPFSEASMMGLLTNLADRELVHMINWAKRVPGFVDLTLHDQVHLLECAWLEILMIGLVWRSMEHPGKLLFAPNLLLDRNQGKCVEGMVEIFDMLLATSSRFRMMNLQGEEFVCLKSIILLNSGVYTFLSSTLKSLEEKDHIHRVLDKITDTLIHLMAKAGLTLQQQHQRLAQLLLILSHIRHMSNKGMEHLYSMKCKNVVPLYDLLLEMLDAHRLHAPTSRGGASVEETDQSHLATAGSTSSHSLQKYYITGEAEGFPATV
The assay can be described thus: Affinity ultrafiltration LC-MS screening (AUF-LC-MS) of Arnebiae Radix extract against ER α. The settings on record: specific binding = Aa/Ab (relative peak area active group / denatured group), extract 5.0 mg/ml, ER α 200 µg/ml, 37°C 60 min, <1.5 = non-ligand. As to the method: as §1
as §2, with “For the chromatographic separation, a Thermo Scientific Hypersil GOLD™ aQ (100 mm × 2.1 mm, 1.9 μm) was applied at the flow rate of 0.3 ml/min.” left out, “The optimized UHPLC elution procedures were conducted as follows: 0–2 min, 95%–90% A; 2–5 min, 90%–80% A; 5–10 min, 80%–75% A; 10–15 min, 75%–50% A; 15–25 min, 50%–45% A; 25–40 min, 45%–20% A; 40–45 min, 20%–5% A; 45–45.1 min, 5%–95% A; 45–50 min, 95% A. The column temperature was maintained at 35°C.” left out
Therefore, affinity ultrafiltration can rapidly screen and identify bioactive compounds in complex plant extracts by comparing the changes in peak areas before and after ultrafiltration.

The mark [5] stands for this setting: SPR, ER β on CM5 chip, 25°C, PBS running buffer, read-out: KD.
The mark [6] stands for this setting: SPR, ER β on CM5 chip, 25°C, PBS running buffer.

T1 sequence (Q92731 whole entry): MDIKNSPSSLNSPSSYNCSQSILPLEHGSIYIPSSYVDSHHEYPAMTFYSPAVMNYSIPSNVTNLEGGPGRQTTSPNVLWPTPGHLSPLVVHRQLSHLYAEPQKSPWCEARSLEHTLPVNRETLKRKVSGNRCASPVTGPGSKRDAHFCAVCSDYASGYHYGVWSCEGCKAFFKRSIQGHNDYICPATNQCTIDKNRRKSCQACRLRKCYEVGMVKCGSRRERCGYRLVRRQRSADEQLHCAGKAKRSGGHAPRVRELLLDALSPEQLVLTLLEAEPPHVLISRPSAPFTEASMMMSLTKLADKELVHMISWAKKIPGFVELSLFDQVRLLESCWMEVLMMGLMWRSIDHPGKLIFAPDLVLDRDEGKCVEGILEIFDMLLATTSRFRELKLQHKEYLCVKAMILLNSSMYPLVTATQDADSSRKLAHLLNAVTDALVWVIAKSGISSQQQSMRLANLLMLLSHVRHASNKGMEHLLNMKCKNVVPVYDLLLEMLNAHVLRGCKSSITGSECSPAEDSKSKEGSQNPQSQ

Consider `O=C(/C=C/c1ccc(O)c(O)c1)O[C@H](Cc1ccc(O)c(O)c1)C(=O)O` [Rosmarinic acid], for which the Specific binding in assay [1] came out at 2.66. Further, the Rmax in assay [2] (SPR, ER β on CM5 chip, 25°C) is on record as 4.41 RU. Also, in assay [2] (setting [5]), the equilibrium dissociation constant (Kd) stood at 1320 nM. Also, in assay [2] (setting [6]), the kon was determined as 2020 M⁻¹ s⁻¹ and the koff stood at 0.00266 s⁻¹.

`O=C(O)CC(O)C(=O)O` (stereo not shown) [Malic acid]: the Specific binding in assay [1] stood at 2.20.

With `O=C(/C=C/c1ccc(O)c2oc(-c3ccc(O)c(O)c3)cc12)O[C@H](Cc1ccc(O)c(O)c1)C(=O)O` [Salvianolic acid C], the Specific binding in assay [1] worked out at 1.75. Moreover, in assay [2] (SPR, ER β on CM5 chip, 25°C), the Rmax was determined as 12.6 RU. The equilibrium dissociation constant (Kd) in assay [2] (setting [5]) was found to be 1980 nM. Further, in assay [2] (setting [6]), the kon stood at 1390 M⁻¹ s⁻¹ and the koff was found to be 0.00276 s⁻¹.

As for `COc1ccc2cc3[n+](cc2c1OC)CCc1cc2c(cc1-3)OCO2` [berberine], the equilibrium dissociation constant (Kd) in assay [3] was 16400 nM.

As for `CC(C)=CCCC1=CC(=O)c2c(O)ccc(O)c2C1=O` [Deoxyshikonin], the Specific binding in assay [4] is reported as 2.28.

Regarding `N[C@@H](Cc1ccccc1)C(=O)O` [Phenylalanine], the values for the Specific binding in assay [1] and in assay [4] were 2.39 and 6.36, respectively.

`C[C@@H]1O[C@@H](OC[C@H]2O[C@@H](Oc3c(-c4ccc(O)c(O)c4)oc4cc(O)cc(O)c4c3=O)[C@H](O)[C@@H](O)[C@@H]2O)[C@H](O)[C@H](O)[C@H]1O` [Rutin] came in with an Rmax in assay [2] (SPR, ER β on CM5 chip, 25°C) of 7.78 RU. The Kd in assay [2] (setting [5]) stood at 934 nM.

As for `O=C(O)CC(O)(CC(=O)O)C(=O)O` [Citric acid], the results for the Specific binding in assay [1] and in assay [4] were 1.78 and 5.02, respectively.

Consider `O=C(/C=C/c1ccc(O)c2c1[C@H](C(=O)O[C@H](Cc1ccc(O)c(O)c1)C(=O)O)[C@@H](c1ccc(O)c(O)c1)O2)O[C@H](Cc1ccc(O)c(O)c1)C(=O)O` [Salvianolic acid B], for which the Specific binding in assay [1] is 2.24. In addition, binding in assay [2] was characterised by a dissociation constant (Kd) of 2320 nM. This compound also registered an Rmax in assay [2] (SPR, ER β on CM5 chip, 25°C) of 3.51 RU. Moreover, in assay [2] (setting [6]), the kon is 788 M⁻¹ s⁻¹ and the koff amounted to 0.00183 s⁻¹.

`O=c1c(O[C@@H]2O[C@H](CO)[C@@H](O)[C@H](O)[C@H]2O)c(-c2ccc(O)c(O)c2)oc2cc(O)cc(O)c12` [Isoquercitrin]: in assay [1], the Specific binding turned out to be 1.91. In assay [2] (SPR, ER β on CM5 chip, 25°C), this compound gave an Rmax of 9.57 RU. The Kd in assay [2] (setting [5]) amounted to 1040 nM. Further, in assay [2] (setting [6]), the kon was 3020 M⁻¹ s⁻¹ and the koff amounted to 0.00314 s⁻¹.

As for `O=c1c(O)c(-c2ccc(O)c(O)c2)oc2cc(O)cc(O)c12` [Quercetin], the Specific binding in assay [1] is listed as 1.54. In assay [2] (SPR, ER β on CM5 chip, 25°C), this compound returned an Rmax of 13.28 RU. The equilibrium dissociation constant (Kd) in assay [2] (setting [5]) is 1260 nM. In addition, in assay [2], the kon was 2950 M⁻¹ s⁻¹ and the koff turned out to be 0.00372 s⁻¹.

`CCCC[C@H](N)C(=O)O` [Norleucine]: in assay [1], the Specific binding is reported as 2.29.

Take `COc1ccc(C2COc3cc(O)ccc3C2)c(OC)c1` (stereo not shown) [Sativan]: in assay [4], the Specific binding was found to be 2.15.

As to `O=C(O)CCCCC(=O)O` [Adipic acid], in assay [4], the Specific binding is given as 5.77.
